# Laboratory results from US12227802B2, “Nucleotides with a 3′ AOM blocking group” (Illumina Cambridge Limited, priority 2018, dated 2025).
# How the values were obtained:
# Type in all cases: physicochemical
# [1] = Deblocking test of 3′ blocked T nucleotides in solution (Pd/THP for AOM, THP for azidomethyl; HPLC); settings: 0.1 mM nucleotide, Pd/THP=1/5, 1 mM THP, ethanolamine pH 9.8, room temperature
# Protocol: In this example, deblocking tests for 5′-mP 3′-AOM T and the standard 5′-mP 3′-O-azidomethyl T nucleotide were performed individually in a solution unique to each blocking group. Conditions were formulated to mimic Illumina's standard deblock reagent as closely as possible, and follow the same methodology. Concentrations of active deblock reagent, buffer, and nucleoside are kept the same across all tests, but the identity of each component was unique. In this way, the observed difference in rate between the individual deblocking chemistries cannot due to the differences in concentration of formulation.
# Nucleotide: 5′-monophosphate 3′-O-azidomethyl T. Active Deblock reagent: tris(hydroxypropyl)phosphine (THP) (1M in 18 mΩ water). (Optional) Additive: Sodium ascorbate (0.1 mM in 18 mΩ water) final conc.=1 mM. Buffer: Ethanolamine pH 9.8 (2M in 18 mΩ water). Quenching reagent: H2O2.
# Nucleotide: 5′-monophosphate […]. A stock solution of 3′-AOM T was diluted to 0.1 mM in a 100 mM ethanolamine buffer (pH 9.8), in a glass vial under nitrogen. A stock solution of sodium ascorbate additive was added to a final concentration of 0.1 mM and the solution stirred 5 minutes. To commence the assay, the deblock reagents (Pd/THP=⅕; sodium ascorbate; ethanolamine) were added, to a final concentration of 1 mM THP, to the stirring solution at room temperature. […]
# [2] = 3′-O-thiocarbamate (DMTC) deblocking test in solution (HPLC)
# Protocol: In this example, deblocking or deblock tests for 5′-mP 3′-DMTC T and the standard 5′-mP 3′-O-azidomethyl T nucleotide were performed individually in a solution unique to each blocking group. Conditions were formulated to mimic Illumina's standard deblock reagent as closely as possible, and follow the same methodology. Concentrations of active deblock reagent, buffer, and nucleoside are kept the same across all tests, but the identity of each component was unique. In this way, the observed difference in rate between the individual deblocking chemistries cannot due to the differences in concentration of formulation.
# Each reaction component was formulated individually as a concentrated stock in 18 mΩ water, stored appropriately, and aliquots combined in a specific order given below. Reaction was commenced by addition of the preformulated deblock reagent. […]
# In a 3 mL glass vial was added the preformulated buffer solution followed by preformulated additive solution. […] A 40 μL aliquot was then taken, quenching reagent added and analyzed by HPLC as a reference (or t=0 min) peak. […] At specified time points, 40 μL aliquots were taken and quenched immediately with an appropriate quenching reagent, then analyzed by HPLC to determine the amount of deblocked nucleotide that has occurred at these specified time points. […]
# [3] = 3′-O-thiocarbamate blocking groups stability testing in incorporation buffer at 65° C. (HPLC); settings: 9-day testing period (FIG. 6)
# Protocol: The stability tests for 5′-mP 3′-DMTC T nucleotide was performed side by side in an incorporation buffer solution with standard 5′-mP 3′-O-azidomethyl T nucleotide.
# For both 5′-mP 3′-DMTC T and 5′-mP 3′-O-azidomethyl T, the final solution volume was 1 mL and the final concentrations of the corresponding nucleotides were both 0.1 mM. Other components of the aqueous buffer solution include ethanolamine (EA), ethanolamine HCl, NaCl (100 mM), and EDTA (2.5 mM). The buffer solution has the following concentration: 0.5 M EA Buffer, 0.5 M NaCl, 0.01 M EDTA.
# 200 μL of 10× Buffer solution was added to a 1.7 mL polypropylene snap lock microtube and diluted with the correct volume of 18 mΩ water. The corresponding nucleoside was then added, the vial was sealed and mixed via inversion, gentle stirring or pumping with a micropipette. A 40 μL aliquot was taken and analyzed by HPLC to act as a starting (or t=0) value. The vials are then placed in a pre-heated heating mantle set to 65° C., covered with a thick layer of aluminum foil and left to heat for one month. 40 μL aliquots was taken periodically (weck 1: once daily. Wecks 2-4: 1 every 2 days) and analyzed by HPLC to determine the percentage starting material and the percentage deblocked (3′-OH) nucleotide in the samples. HPLC analysis was performed by measuring the area of the stating nucleotide peak and the 3′OH peak. […]
stability compared to nucleotide with standard 3′-O-azidomethyl group [3],SMILES,speed improvement in deblocking rate in solution compared to standard azidomethyl blocking group [1] [fold],"deblocking with NaIO4 ([2]; 1 mM NaIO4, pH 6.75 phosphate buffer (FIG. 7))","deblocking rate with Oxone compared to standard azidomethyl blocking group ([2]; 1 mM Oxone, pH 8.65 phosphate buffer (FIG. 7))"
,C=CCOCOC1C[C@H](n2cc(C)c(=O)[nH]c2=O)O[C@@H]1COP(=O)(O)O (stereo partly shown) [AOM],10,,
improved stability,Cc1cn([C@H]2CC(OC(=S)N(C)C)[C@@H](COP(=O)(O)O)O2)c(=O)[nH]c1=O (stereo partly shown) [DMTC],,not efficient,superior deblocking rate
